The record followed here is patent US20100159528A1, “POLYMERASE STABILIZATION” (GE HEALTHCARE BIO-SCIENCE CORP., priority 2007, published 2010).

In one experiment the test system is Tba DNA polymerase. In words: PCR assay for detergents screening: amplification of a 1 kb λDNA fragment with Tba purified and stored without detergents. It is filed as biochemical, Thermococcus barossii. The following applies: for % Activity relative to TWEEN ® 20: PCR yield of 1 kb λDNA fragment, Agilent Bioanalyzer; for PCR yield higher than the positive control (TWEEN® 20): PCR reactions containing the detergent; for stabilization and activation of DNA polymerase (in words): detergent added into PCR reaction mix at 0.01% and 0.1% (FIG. 2). How it is done:
In this experiment, two lots of DNA polymerase that were purified and stored in buffers with/without detergents were tested. Each of the tested DNA polymerase was first diluted into 20 folds in buffers with and without of TWEEN® 20, respectively, prior to PCR and then equal units of enzyme was added into PCR mix. PCRs were performed in 25 μl volume in with 200 nM of forward and reverse primers, 200 μM dNTP, 1.0 unit of Tba and 1.0 ng template DNA. 1 kb human genomic DNA and 1 kb lambda DNA fragments were amplified. Reaction buffer contains 10 mM Tris-HCl, pH 9.0, 50 mM KCl, and 1.5 mM MgCl2. The PCR reaction was started by 2 minutes initial heating at 95° C., followed by 35 cycles with 95° C. for 30 s, 55° C. 30 s, and 72° C. for 60 s, and then final extension at 72° C. for 5 min. The PCR products were analyzed with Agilent Bioanalyzer.
The PCR assay was used for the detergents screening. The tested detergents were first dissolved in molecular biology grade water and neutralized to pH7 with a sodium hydroxide solution to make final concentration of 5% (W/V) stock solutions. The 5% detergent solutions were then used for the screening by either adding them into enzyme dilution buffer or spiked into PCR mix. The amplification of a 1 kb λDNA fragment was used test the effect of each detergent on the Tba stability and activity. The PCR conditions are the same as described earlier. Tba that was purified and stored in the absence of detergents was used for the tests. The tested detergents were spiked into the PCR reactions at a final concentration of 0.01%, 0.05%, and 0.1%, respectively. The PCR yields were quantitated by Agilent Bioanalyzer.

Experiment [1] deals with DNA polymerase. The note with it: for effect of high detergent concentration on stability and activity: Concentrations above 0.5% (W/V).
Procedure: For ♦, each detergent is present at the indicated amount.
(§1) The stabilization functions of these two detergents are tested for δJSER DNA polymerase as well. […] In addition, the stabilization effects of these two detergents on DNA polymerase were also tested in the activity assay and thermostability assay.
Experiment [2] has as its system DNA polymerase.
Procedure: An enzyme will have a maximal activity rate, which is preferably measured under conditions of saturating substrate concentration and at a selected set of environmental conditions including temperature, pH and salt concentration. For the DNA polymerases described herein, preferred conditions for measuring activity are 25 mM TAPS (tris-hydroxymethyl 25 methylaminopropane sulfonic acid) buffer, pH 9.3 (measured at 25° C.), 50 mM KCl, 2 mM MgCl2, 1 mM 2- mercaptoethanol, 0.2 mM each of dGTP, dCTP, dTTP, 0.2 mM [α-33P]-dATP (0.05-0.1 Ci/mmol) and 0.4 mg/mL activated salmon sperm DNA. The reaction is allowed to proceed at 74° C. Exemplary methods for measuring the DNA polymerase activity of an enzyme under such 30 conditions are provided hereinafter.
as §1
The subject of the next experiment is δJSER DNA polymerase. In words: Stabilization/activation test for δJSER DNA polymerase. In kind it is biochemical, JSER. The note with it: compared with the effect on Tba.
The mark [3] stands for this setting: Detergent Conc. 0.01% in PCR reaction.
The mark [4] stands for this setting: Detergent Conc. 0.05% in PCR reaction.
Where [5] appears, read: Detergent Conc. 0.10% in PCR reaction.

Procedure for δJSER DNA polymerase: as §1

Take TWEEN® 20 [reference compound]: the “formation of PCR products depending on detergent in the enzyme dilution buffer” value in the experiment on Tba DNA polymerase (Tba diluted 20 fold in buffer with/without TWEEN® 20, 1 kb λDNA and human genomic DNA fragments (FIG. 1)) is “PCR products were only obtained from the reactions that the enzymes were diluted in a buffer containing the detergent”.
With “polyoxyethylene nonylphenol ether, phosphate [RHODAFAC™ RE-960]”, in the experiment on DNA polymerase [1], the “stabilization effect in the thermostability test compared with TWEEN® 20” value is “same or better stabilization effects”; the “effect of high detergent concentration on stability and activity” value is “do not improve stability but do not decrease activity”. In addition, the “DNA polymerase remaining active after heating” value in the experiment with DNA polymerase [1] (95° C., 15 minutes, 1x PCR buffer, compared with NP40 and TWEEN® 20 (FIG. 3)) is reported as “more DNA polymerase remains active”. Further, the “% Activity relative to TWEEN ® 20” value in the experiment on Tba DNA polymerase (setting [3]) worked out at 130.7%. In addition, the “% Activity relative to TWEEN ® 20” value with Tba DNA polymerase (setting [4]) is reported as 165.8%. In addition, the “% Activity relative to TWEEN ® 20” value in the experiment with Tba DNA polymerase (setting [5]) is 167.1%. In the experiment on Tba DNA polymerase, the “PCR yield higher than the positive control (TWEEN® 20)” value was “about 30%”; the “stabilization and activation of DNA polymerase (in words)” value was “work very well in stabilization and activation of DNA polymerase”. Moreover, the “stabilization effect in the activity assay compared with TWEEN® 20” value in the experiment with DNA polymerase [2] is “same or better stabilization effects”. The “activation of δJSER DNA polymerase” value with δJSER DNA polymerase is recorded as “same activation”.
“polyoxyethylene tridecyl ether, phosphate [RHODAFAC™ RS-960]”: in the experiment on DNA polymerase [1], the “stabilization effect in the thermostability test compared with TWEEN® 20” value is on record as “same or better stabilization effects”; the “effect of high detergent concentration on stability and activity” value is on record as “do not improve stability but do not decrease activity”. Besides, the “% Activity relative to TWEEN ® 20” value in the experiment with Tba DNA polymerase (setting [3]) is 101.8%. Further, the “% Activity relative to TWEEN ® 20” value in the experiment on Tba DNA polymerase (setting [4]) was 167.9%. In addition, the “% Activity relative to TWEEN ® 20” value in the experiment with Tba DNA polymerase (setting [5]) came out at 178.6%. In the experiment with Tba DNA polymerase, the “PCR yield higher than the positive control (TWEEN® 20)” value is “about 30%”; the “stabilization and activation of DNA polymerase (in words)” value was “work very well in stabilization and activation of DNA polymerase”. Further, the “stabilization effect in the activity assay compared with TWEEN® 20” value in the experiment on DNA polymerase [2] was “same or better stabilization effects”. Also, the “activation of δJSER DNA polymerase” value in the experiment with δJSER DNA polymerase is on record as “same activation”.
